# Legend:
# Test in all cases: relative viability (nuclei count vs DMSO), 5 days (fraction); higher = more cells survive
# NCI-H1915 = system: NCI-H1915
# How it was run: (§1)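 Lung cancer cell lines in 1536-well plates were dosed by pin tool the day after seeding, either with one drug alone or with a fixed anchor-drug dose plus five library-drug doses (not always all listed) in √10 steps. After 5 days, cells were fixed and their nuclei stained in one step (final 0.05% Triton X-100, 1% formaldehyde, 1 ug/ml Hoechst), then counted on 4× images. Relative viability is the nuclei count in treated wells divided by that in vehicle wells. Values are medians of duplicate plates.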
# NCI-H358 = system: NCI-H358
# How it was run: as §1
# HCC-44 = system: HCC-44
# How it was run: as §1
# SK-MES-1 = system: SK-MES-1
# How it was run: as §1
# NCI-H2023 = system: NCI-H2023
# How it was run: as §1
# NCI-H1395 = system: NCI-H1395
# How it was run: as §1
# COR-L23 = system: COR-L23
# How it was run: as §1
# LOU-NH91 = system: LOU-NH91
# How it was run: as §1
# NCI-H2087 = system: NCI-H2087
# How it was run: as §1
# NCI-H1734 = system: NCI-H1734
# How it was run: as §1
# EKVX = system: EKVX
# How it was run: as §1
# A-427 = system: A-427
# How it was run: as §1
# HCC-366 = system: HCC-366
# How it was run: as §1
# NCI-H838 = system: NCI-H838
# How it was run: as §1
# NCI-H3122 = system: NCI-H3122
# How it was run: as §1
# NCI-H661 = system: NCI-H661
# How it was run: as §1
# EPLC-272H = system: EPLC-272H
# How it was run: as §1
# NCI-H650 = system: NCI-H650
# How it was run: as §1
# HCC-78 = system: HCC-78
# How it was run: as §1
# NCI-H596 = system: NCI-H596
# How it was run: as §1
# HOP-62 = system: HOP-62
# How it was run: as §1
smiles,measurement,setting,value
Cc1cnc(-c2cnc(NCCNc3ccc(C#N)cn3)nc2-c2ccc(Cl)cc2Cl)[nH]1 + C[C@]1(O)C[C@@H](c2nc(-c3ccc4ccc(-c5ccccc5)nc4c3)c3c(N)nccn32)C1 [Linsitinib] (partner 1 µM),relative viability,NCI-H1915; first compound 0.08 µM,1.08
same,relative viability,NCI-H1915; first compound 0.8 µM,1.11
same,relative viability,NCI-H1915; first compound 2.53 µM,1.08
same,relative viability,NCI-H358; first compound 0.08 µM,0.833
same,relative viability,NCI-H358; first compound 0.253 µM,0.561
same,relative viability,NCI-H358; first compound 0.8 µM,0.696
same,relative viability,NCI-H358; first compound 2.53 µM,0.618
same,relative viability,HCC-44; first compound 0.08 µM,0.685
same,relative viability,HCC-44; first compound 0.253 µM,0.553
same,relative viability,HCC-44; first compound 0.8 µM,0.681
same,relative viability,HCC-44; first compound 2.53 µM,0.787
same,relative viability,SK-MES-1; first compound 0.08 µM,1.2
same,relative viability,SK-MES-1; first compound 0.253 µM,1.03
same,relative viability,SK-MES-1; first compound 0.8 µM,1.05
same,relative viability,SK-MES-1; first compound 2.53 µM,1.04
same,relative viability,NCI-H2023; first compound 0.08 µM,0.779
same,relative viability,NCI-H2023; first compound 0.253 µM,0.649
same,relative viability,NCI-H2023; first compound 0.8 µM,0.794
same,relative viability,NCI-H2023; first compound 2.53 µM,1.12
same,relative viability,NCI-H1395; first compound 0.08 µM,1.17
same,relative viability,NCI-H1395; first compound 0.253 µM,0.972
same,relative viability,NCI-H1395; first compound 0.8 µM,1.04
same,relative viability,NCI-H1395; first compound 2.53 µM,1
same,relative viability,COR-L23; first compound 0.08 µM,0.814
same,relative viability,COR-L23; first compound 0.253 µM,0.833
same,relative viability,COR-L23; first compound 0.8 µM,0.929
same,relative viability,COR-L23; first compound 2.53 µM,0.962
same,relative viability,LOU-NH91; first compound 0.08 µM,1.07
same,relative viability,LOU-NH91; first compound 0.253 µM,0.951
same,relative viability,LOU-NH91; first compound 0.8 µM,0.969
same,relative viability,LOU-NH91; first compound 2.53 µM,0.89
same,relative viability,NCI-H2087; first compound 0.08 µM,0.907
same,relative viability,NCI-H2087; first compound 0.253 µM,0.978
same,relative viability,NCI-H2087; first compound 0.8 µM,0.987
same,relative viability,NCI-H2087; first compound 2.53 µM,1.02
same,relative viability,NCI-H1734; first compound 0.08 µM,1.01
same,relative viability,NCI-H1734; first compound 0.253 µM,0.763
same,relative viability,NCI-H1734; first compound 0.8 µM,0.837
same,relative viability,NCI-H1734; first compound 2.53 µM,0.849
same,relative viability,EKVX; first compound 0.08 µM,1.07
same,relative viability,EKVX; first compound 0.253 µM,0.794
same,relative viability,EKVX; first compound 0.8 µM,0.934
same,relative viability,EKVX; first compound 2.53 µM,0.926
same,relative viability,A-427; first compound 0.08 µM,1.09
same,relative viability,A-427; first compound 0.253 µM,1.12
same,relative viability,A-427; first compound 0.8 µM,1.11
same,relative viability,A-427; first compound 2.53 µM,1.15
same,relative viability,HCC-366; first compound 0.08 µM,0.694
same,relative viability,HCC-366; first compound 0.253 µM,0.557
same,relative viability,HCC-366; first compound 0.8 µM,0.608
same,relative viability,HCC-366; first compound 2.53 µM,0.28
same,relative viability,NCI-H838; first compound 0.08 µM,1.02
same,relative viability,NCI-H838; first compound 0.253 µM,1.02
same,relative viability,NCI-H838; first compound 0.8 µM,1.25
same,relative viability,NCI-H838; first compound 2.53 µM,1.51
same,relative viability,NCI-H3122; first compound 0.08 µM,1.04
same,relative viability,NCI-H3122; first compound 0.253 µM,0.949
same,relative viability,NCI-H3122; first compound 0.8 µM,1.04
same,relative viability,NCI-H3122; first compound 2.53 µM,0.997
same,relative viability,NCI-H661; first compound 0.08 µM,0.775
same,relative viability,NCI-H661; first compound 0.253 µM,0.628
same,relative viability,NCI-H661; first compound 0.8 µM,0.448
same,relative viability,NCI-H661; first compound 2.53 µM,0.63
same,relative viability,EPLC-272H; first compound 0.08 µM,1.08
same,relative viability,EPLC-272H; first compound 0.253 µM,1.18
same,relative viability,EPLC-272H; first compound 0.8 µM,1.27
same,relative viability,EPLC-272H; first compound 2.53 µM,1.13
same,relative viability,NCI-H650; first compound 0.08 µM,1.02
same,relative viability,NCI-H650; first compound 0.253 µM,0.769
same,relative viability,NCI-H650; first compound 0.8 µM,0.93
same,relative viability,NCI-H650; first compound 2.53 µM,0.712
same,relative viability,HCC-78; first compound 0.08 µM,0.632
same,relative viability,HCC-78; first compound 0.253 µM,0.437
same,relative viability,HCC-78; first compound 0.8 µM,0.459
same,relative viability,HCC-78; first compound 2.53 µM,0.435
same,relative viability,NCI-H596; first compound 0.08 µM,1.02
same,relative viability,NCI-H596; first compound 0.253 µM,1.11
same,relative viability,NCI-H596; first compound 0.8 µM,1.06
same,relative viability,NCI-H596; first compound 2.53 µM,1.07
same,relative viability,HOP-62; first compound 0.08 µM,1.09
same,relative viability,HOP-62; first compound 0.253 µM,0.972
same,relative viability,HOP-62; first compound 0.8 µM,0.775
same,relative viability,HOP-62; first compound 2.53 µM,0.794
